From patent US8518963B2, “Therapeutic polymeric nanoparticle compositions with high glass transition temperature or high molecular weight copolymers” (BIND Therapeutics, Inc., priority 2009, dated 2013)

Experiments:
[1] = Rat pharmacokinetics after a single intravenous dose; assay type: in vivo, Rats (male Sprague Dawley); settings: single intravenous dose 0.5 mg/kg, plasma, individual rats
Method: Rats (male Sprague Dawley, approximately 300 g with jugular cannulae) were given a single intravenous dose of 0.5 mg/kg of budesonide or passively targeted nanoparticles (PTNP) encapsulating budesonide (prepared as in Example 16) at time=0. At various times after dosing, blood samples were collected from the jugular cannulae into tubes containing lithium heparin, and plasma was prepared. Plasma levels were determined by extraction of the budesonide from plasma followed by LCMS analysis.

[2] = test system: indomethacin induced inflammatory bowel disease in rats; assay: Rat model of inflammatory bowel disease (IBD); assay type: in vivo; settings: 5 days, female rats
Method: Budesonide and Budesonide PTNP were compared in a model of inflammatory bowel disease (IBD) as an efficacy model of inflammation. In this model, female rats were given two subcutaneous doses of 8 mg/kg indomethacin at 24 hour intervals to induce lesions resembling those occurring in Crohn's disease in the small intestine. Intravenous daily treatment with vehicle, budesonide (0.02, 0.2 or 2 mg/kg) or budesonide PTNP (0.02, 0.2 or 2 mg/kg) or oral daily treatment with Dexamethasone (0.1 mg/kg) was initiated one day before indomethacin treatment (day −1) and continued for 5 total days (days −1 to 3). Animals were euthanized on day 4, and a 10 cm area at risk in the small intestine was scored for gross pathology and weighed.
Using a disease scoring system in which a score of 0 is normal, and a score of 5 indicates death due to IBD symptoms, normal rats have an average score of 0, and an average intestinal weight of 0.488 g.

CCCC1O[C@@H]2C[C@H]3[C@@H]4CCC5=CC(=O)C=C[C@]5(C)[C@H]4[C@@H](O)C[C@]3(C)[C@]2(C(=O)CO)O1 (some centres unmarked) [Budesonide, budesonide]
AUCinf [1]: 159 ng·h/mL | t1/2 [1]: 45 min | decrease of intestinal scores towards normal ([2]; 0.02 mg/kg intravenous daily): 52% | decrease of small intestine weights toward normal ([2]; 0.02 mg/kg intravenous daily): 52% | decrease of intestinal scores towards normal ([2]; 0.2 mg/kg intravenous daily): 53% | decrease of small intestine weights toward normal ([2]; 0.2 mg/kg intravenous daily): 53% | decrease of intestinal scores towards normal ([2]; 2 mg/kg intravenous daily): 59% | decrease of small intestine weights toward normal ([2]; 2 mg/kg intravenous daily): 59%
